This note sets out measurements from US12465050B2, “Compositions comprising a pyridine carboxylate herbicide and protoporphyrinogen oxidase (protox) inhibitor herbicides” (priority 2018, dated 2025).

Structures are written as SMILES.

Holding throughout (assay type): in vivo
The subject of series [1] is Viola tricolor (wild pansy). Description: Greenhouse postemergence herbicidal effect on VIOTR. From the text:
(§1) Greenhouse Trial Methodology—Evaluation of Postemergence Herbicidal Effect
(§2) Seeds of the desired test plant species were planted in a 90:10% v/v (volume/volume) mixture of PRO-MIX® BX (Premier Tech Horticulture, Quakertown, Pa., USA) and PROFILE® GREENS GRADE™ (Profile Products LLC, Buffalo Grove, Ill., USA) planting mixture, which typically has a pH of 5.2 to 6.2 and an organic matter content of at least 50 percent, in plastic pots with a surface area of 103.2 square centimeters (cm^2). In some aspects or embodiments, to help ensure good germination and healthy plants, a fungicide treatment and/or other chemical or physical treatment was applied. The plants were grown for 7-36 days (d) in a greenhouse with an approximate 14-hour (h) photoperiod which was maintained at about 23° C. during the day and 22° C. during the night. Nutrients and water were added on a regular basis and supplemental lighting was provided with overhead metal halide 1000-Watt lamps as necessary. The plants were employed for testing when they reached the second or third true leaf stage.
(§3) Emulsifiable concentrates of each of each pyridine carboxylate herbicide (Compound A or Compound B) were prepared at 100 grams acid equivalent per liter (g ae/L). The emulsifiable concentrates also included a safener, cloquintocet mexyl, at 120 grams active ingredient per liter (g ai/L). An aliquot of each emulsifiable concentrate was placed in a 25 mL glass vial and diluted with an aqueous mixture of 1.25% (v/v) ACTIROB® B esterified rapeseed oil (Bayer Crop Science, Research Triangle Park, N.C., USA) or MSO® Concentrate with LECI-TECH® methylated soybean oil (Loveland Products, Loveland, Colo., USA) to obtain concentrated stock solutions at the highest application rate for each herbicide, based upon a 12 milliliter (mL) application volume at a rate of 187 liters per hectare (L/ha). The concentrated stock solutions were further diluted with an aqueous mixture of 1.25% v/v ACTIROB® B or MSO® Concentrate with LECI-TECH® to obtain stock solutions at reduced application rates for each herbicide. Spray solutions of the herbicide combinations (Compound A or Compound B plus PROTOX inhibitor herbicide) were prepared by adding weighed amounts or aliquots of the PROTOX inhibitor herbicides to the stock solutions of Compound A or Compound B to form 12-mL spray solutions in two-way combinations.
(§4) The spray solutions were applied to the plant material with an overhead Mandel track sprayer equipped with 8002E nozzles calibrated to deliver 187 L/ha over an application area of 0.503 square meters (m^2) at a spray height of 18 inches (43 centimeters (cm)) above the average plant canopy. Control plants were sprayed in the same manner with the solvent blank. All pyridine carboxylate herbicide (component a) application rates are given as “g ae/ha” and all PROTOX inhibitor herbicide (component b) application rates are given as “g ai/ha.”
(§5) The treated plants and control plants were placed in a greenhouse as described above and watered by sub-irrigation to prevent wash-off of the test compounds. After 20-22 d, the condition of the test plants as compared with that of the control plants was determined visually and scored on a scale of 0 to 100 percent where 0 corresponds to no injury and 100 corresponds to complete kill.

Series [2] has as its system Cirsium arvense (Canadian thistle). In words: Greenhouse postemergence herbicidal effect on CIRAR.
Source text: as §1, §2, §3, §4, §5

The test system of the next series is Kochia scoparia (kochia). In words: Greenhouse postemergence herbicidal effect on KCHSC.
Source text: as §1, §2, §3, §4, §5

Series [3] deals with Triticum aestivum (spring wheat). Description: Greenhouse postemergence phytotoxicity on crop TRZAS.
Source text: as §1, §2, §3, §4, §5

Series [4] relates to Polygonum convolvulus (wild buckwheat). In words: Greenhouse postemergence herbicidal effect on POLCO.
Source text: as §1, §2, §3, §4, §5

Series [5] concerns Salsola kali (Russian thistle). Description: Greenhouse postemergence herbicidal effect on SASKR.
Source text: as §1, §2, §3, §4, §5

The test system of series [6] is Hordeum vulgare (spring barley). In words: Greenhouse postemergence phytotoxicity on crop HORVS.
Source text: as §1, §2, §3, §4, §5

Series [7] relates to Sinapis arvensis (wild mustard). Description: Greenhouse postemergence herbicidal effect on SINAR.
Source text: as §1, §2, §3, §4, §5

In series [8] the test system is Brassica napus (winter rape). Description: Greenhouse postemergence herbicidal effect on BRSNW.
Source text: as §1, §2, §3, §4, §5

Series [9] relates to Matricaria chamomilla (wild chamomile). Description: Greenhouse postemergence herbicidal effect on MATCH.
Source text: as §1, §2, §3, §4, §5

Series [10] deals with Lamium purpureum (purple deadnettle). In words: Greenhouse postemergence herbicidal effect on LAMPU. The settings on record: Compound A 0, Oxyfluorfen 560 g/ha.
Source text: as §1, §2
as §3, with “combinations. […]” for “combinations.”
as §5

For series [11], the system named is Capsella bursa-pastoris (shepherd's purse). Description: Greenhouse postemergence herbicidal effect on CAPBP. The settings on record: Compound A 0, Oxyfluorfen 560 g/ha.
Source text: as §1, §2
as §3, with “combinations. […]” for “combinations.”
as §5

Series [12] concerns Cyanus segetum (cornflower). Description: Greenhouse postemergence herbicidal effect on CENCY. The settings on record: Compound A 0, Oxyfluorfen 560 g/ha.
Source text: as §1, §2
as §3, with “combinations. […]” for “combinations.”
as §5

Series [13] deals with Viola arvensis (field violet). Description: Greenhouse postemergence herbicidal effect on VIOAR. The note with it: Compound A 0, Oxyfluorfen 560 g/ha.
Source text: as §1, §2
as §3, with “combinations. […]” for “combinations.”
as §5

The test system of series [14] is Stellaria media (chickweed). Description: Greenhouse postemergence herbicidal effect on STEME. The settings on record: Compound A 0, Oxyfluorfen 560 g/ha.
Source text: as §1, §2
as §3, with “combinations. […]” for “combinations.”
as §5

Series [15] deals with Matricaria inodora (scentless chamomile). Description: Greenhouse postemergence herbicidal effect on MATIN. The settings on record: Compound A 0, Oxyfluorfen 560 g/ha.
Source text: as §1, §2
as §3, with “combinations. […]” for “combinations.”
as §5

Series [16] has as its system Anthemis arvensis (corn chamomile). Description: Greenhouse postemergence herbicidal effect on ANTAR. The settings on record: Compound A 0, Oxyfluorfen 560 g/ha.
Source text: as §1, §2
as §3, with “combinations. […]” for “combinations.”
as §5

For series [17], the system named is Matricaria discoidea (pineapple weed). In words: Greenhouse postemergence herbicidal effect on MATMT. The note with it: Compound A 0, Oxyfluorfen 560 g/ha.
Source text: as §1, §2
as §3, with “combinations. […]” for “combinations.”
as §5

For series [18], the system named is Veronica persica (Persian speedwell). Description: Greenhouse postemergence herbicidal effect on VERPE. The note with it: Compound A 0, Oxyfluorfen 560 g/ha.
Source text: as §1, §2
as §3, with “combinations. […]” for “combinations.”
as §5

Series [19] concerns Papaver rhoeas (common poppy). In words: Greenhouse postemergence herbicidal effect on PAPRH. The settings on record: Compound A 0, Oxyfluorfen 560 g/ha.
Source text: as §1, §2
as §3, with “combinations. […]” for “combinations.”
as §5

The test system of series [20] is Veronica hederifolia (ivy-leaved speedwell). In words: Greenhouse postemergence herbicidal effect on VERHE. The settings on record: Compound A 0, Oxyfluorfen 560 g/ha.
Source text: as §1, §2
as §3, with “combinations. […]” for “combinations.”
as §5

Series [21] relates to Papaver rhoeas (herbicide-resistant poppy). Description: Greenhouse postemergence herbicidal effect on PAPRH-RES. The settings on record: Compound A 0, Oxyfluorfen 560 g/ha.
Source text: as §1, §2
as §3, with “combinations. […]” for “combinations.”
as §5

The test system of series [22] is Triticum aestivum (winter wheat). In words: Greenhouse postemergence phytotoxicity on crop TRZAW. The settings on record: Compound A 0, Oxyfluorfen 560 g/ha.
Source text: as §1, §2
as §3, with “combinations. […]” for “combinations.”
as §5

Series [23] deals with Hordeum vulgare (winter barley). In words: Greenhouse postemergence phytotoxicity on crop HORVW. The settings on record: Compound A 0, Oxyfluorfen 560 g/ha.
Source text: as §1, §2
as §3, with “combinations. […]” for “combinations.”
as §5

Series [24] concerns Brassica napus (spring rape). Description: Greenhouse postemergence herbicidal effect on BRSNN.
Source text: as §1, §2, §3, §4, §5

For series [25], the system named is Chenopodium album L. (common lambsquarters). In words: Greenhouse postemergence herbicidal effect on CHEAL.
Source text: as §1, §2, §3, §4, §5

Series [26] relates to Amaranthus retroflexus (pigweed). In words: Greenhouse postemergence herbicidal effect on AMARE.
Source text: as §1, §2, §3, §4, §5

For series [27], the system named is Rumex obtusifolius (broad-leaf dock). Description: Greenhouse postemergence herbicidal effect on RUMOB. The settings on record: Compound A 0, Saflufenacil 11.2 g/ha.
Source text: as §1, §2, §3, §4, §5

Series [28] concerns Setaria faberi (giant foxtail). In words: Greenhouse postemergence herbicidal effect on SETFA.
Source text: as §1, §2, §3, §4, §5

In series [29] the test system is Abutilon theophrasti (velvetleaf). In words: Greenhouse postemergence herbicidal effect on ABUTH. The note with it: Compound A 0, Saflufenacil 11.2 g/ha.
Source text: as §1, §2
(§6) Emulsifiable concentrates of each of each pyridine carboxylate herbicide (Compound A or Compound B) were prepared at 100 grams acid equivalent per liter (g ae/L). The emulsifiable concentrates also included a safener, cloquintocet mexyl, at 120 grams active ingredient per liter (g ai/L). […]
as §5

Series [30] has as its system Sorghum vulgare (sorghum). In words: Greenhouse postemergence herbicidal effect on SORVU. The settings on record: Compound A 0, Saflufenacil 11.2 g/ha.
Source text: as §1, §2, §6, §5

Series [31] has as its system Cyperus esculentus (nutsedge). In words: Greenhouse postemergence herbicidal effect on CYPES. The settings on record: Compound A 0, Saflufenacil 11.2 g/ha.
Source text: as §1, §2, §6, §5

A further series has as its system Zea mays (maize). Description: Greenhouse postemergence phytotoxicity on crop ZEAMX. The note with it: Compound A 0, Saflufenacil 11.2 g/ha.
Source text: as §1, §2, §6, §5

Setting [32] is: Compound A 0, Oxyfluorfen 560 g/ha.
The mark [33] stands for this setting: Compound A 0, Pyraclonil 42.5 g/ha.
[34] abbreviates: Compound A 0, Pyraflufen-ethyl 6 g/ha.
Setting [35] is: Compound B 0, Saflufenacil 1 g/ha.
Where [36] appears, read: Compound A 0, Saflufenacil 11.2 g/ha.

As for `CCOc1cc(Oc2ccc(C(F)(F)F)cc2Cl)ccc1[N+](=O)[O-]` [Oxyfluorfen, 2-chloro-1-(3-ethoxy-4-nitrophenoxy)-4-(trifluoromethyl)benzene, reference compound], the “% visual injury, Obs” value turned out to be 60% in [1] (setting [32]); 35% in series [2] (setting [32]); 55% in the series on Kochia scoparia (kochia) (setting [32]); 23% in series [3] (setting [32]); 80% in series [4] (setting [32]); 60% in series [5] (setting [32]). For the same molecule, the “% visual injury, Obs” value in series [6] (setting [32]) is listed as 70%; in [7] (setting [32]), 20%; in series [8] (setting [32]) it was 20%; in series [9] (setting [32]) it was 25%; in series [10] it was 10%; in [11] it was 0%. Further, the “% visual injury, Obs” value in [12] is on record as 15%; in series [13], 40%; in [14], 0%; in series [15], 0%; in [16] it was 5%; in series [17] it was 5%. Besides, the “% visual injury, Obs” value was 20% in series [18]; 70% in [19]; 5% in series [20]; 45% in series [21]; 20% in [22]; 50% in [23].
For the molecule `C#CCN(C)c1c(C#N)cnn1-c1nn2c(c1Cl)CCCC2` [Pyraclonil, 1-(3-chloro-4,5,6,7-tetrahydropyrazolo[1,5-a]pyridin-2-yl)-5-[methyl-2-propynylamino]-1H-pyrazole-4-carbonitrile, reference compound], the “% visual injury, Obs” value came out at 23% in [24] (setting [33]); 15% in the series on Kochia scoparia (kochia) (setting [33]); 3% in series [3] (setting [33]); 20% in series [4] (setting [33]); 78% in series [5] (setting [33]); 28% in series [6] (setting [33]). Also, the “% visual injury, Obs” value in [7] (setting [33]) and in [25] (setting [33]) was 15% in each case.
Turning to `CCOC(=O)COc1cc(-c2nn(C)c(OC(F)F)c2Cl)c(F)cc1Cl` [Pyraflufen-ethyl, ethyl 2-chloro-5-[4-chloro-5-(difluoromethoxy)-1-methyl-1H-pyrazol-3-yl]-4-fluorophenoxyacetate, reference compound], the “% visual injury, Obs” value in series [2] (setting [34]) amounted to 10%; in the series on Kochia scoparia (kochia) (setting [34]), 0%; in series [26] (setting [34]), 18%; in series [3] (setting [34]) it was 0%; in series [4] (setting [34]), 0%; in series [5] (setting [34]) it was 5%. For the same molecule, the “% visual injury, Obs” value was 0% in series [6] (setting [34]); 0% in series [7] (setting [34]); 5% in [25] (setting [34]); 0% in series [8] (setting [34]); 0% in [9] (setting [34]).
`CC(C)N(C)S(=O)(=O)NC(=O)c1cc(-n2c(=O)cc(C(F)(F)F)n(C)c2=O)c(F)cc1Cl` [Saflufenacil, 2-chloro-5-[3,6-dihydro-3-methyl-2,6-dioxo-4-(trifluoromethyl)-1(2H)-pyrimidinyl]-4-fluoro-N-[[methyl(1-methylethyl)-amino]sulfonyl]benzamide, reference compound]: the “% visual injury, Obs” value in [27] worked out at 100%; in [1] (setting [35]), 55%; in series [2] (setting [35]), 80%; in series [24] (setting [36]) it was 90%; in [28] (setting [36]), 53%; in series [28] (setting [35]) it was 13%. Further, the “% visual injury, Obs” value in [29] was determined as 98%; in [30] it was 33%; in series [31], 28%; in series [26] (setting [36]), 100%; in [3] (setting [36]), 10%; in the series with Zea mays (maize), 45%.
